Results reported in patent US8455665B2, “3-phenoxymethylpyrrolidine compounds” (Theravance, Inc., priority 2009, dated 2013).
Read-outs that look alike come from different tables or passages of the source. Marks after values point to notes of the source that are not given here.

Legend:
[1] = target: SERT (Homo sapiens, UniProt P31645); assay: fluorescence-based serotonin uptake assay (Tsuruda et al. 2010); assay type: cell-based
[2] = target: NET (Homo sapiens, UniProt P23975); assay: fluorescence-based norepinephrine uptake assay (Tsuruda et al. 2010); assay type: cell-based
[3] = serotonin reuptake inhibition, fluorescence-based assay (data indicated by an asterisk), read-out: SERT pIC50 (converted)
[4] = norepinephrine reuptake inhibition, fluorescence-based assay (data indicated by an asterisk), read-out: NET pIC50 (converted)
[5] = serotonin reuptake inhibition, fluorescence-based assay (data indicated by an asterisk)
[6] = norepinephrine reuptake inhibition, fluorescence-based assay (data indicated by an asterisk)

Sequence of NET (P23975 whole entry): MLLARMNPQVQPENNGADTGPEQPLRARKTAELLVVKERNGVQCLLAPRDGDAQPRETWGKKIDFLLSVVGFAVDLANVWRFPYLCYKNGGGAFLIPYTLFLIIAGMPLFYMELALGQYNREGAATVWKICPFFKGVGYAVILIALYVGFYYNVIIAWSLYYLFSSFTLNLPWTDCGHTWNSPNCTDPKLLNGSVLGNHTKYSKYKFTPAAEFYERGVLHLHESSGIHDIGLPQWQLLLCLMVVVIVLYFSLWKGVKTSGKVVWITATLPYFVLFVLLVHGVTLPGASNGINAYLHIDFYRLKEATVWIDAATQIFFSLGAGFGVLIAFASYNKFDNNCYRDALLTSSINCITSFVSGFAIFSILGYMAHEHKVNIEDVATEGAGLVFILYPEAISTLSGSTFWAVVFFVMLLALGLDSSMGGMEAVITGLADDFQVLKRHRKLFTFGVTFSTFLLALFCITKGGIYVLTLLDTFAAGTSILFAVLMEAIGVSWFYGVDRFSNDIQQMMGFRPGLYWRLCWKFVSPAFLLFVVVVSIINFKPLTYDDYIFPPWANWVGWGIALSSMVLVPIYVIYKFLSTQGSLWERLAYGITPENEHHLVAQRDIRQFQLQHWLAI
Sequence of SERT (P31645 whole entry, species assumed): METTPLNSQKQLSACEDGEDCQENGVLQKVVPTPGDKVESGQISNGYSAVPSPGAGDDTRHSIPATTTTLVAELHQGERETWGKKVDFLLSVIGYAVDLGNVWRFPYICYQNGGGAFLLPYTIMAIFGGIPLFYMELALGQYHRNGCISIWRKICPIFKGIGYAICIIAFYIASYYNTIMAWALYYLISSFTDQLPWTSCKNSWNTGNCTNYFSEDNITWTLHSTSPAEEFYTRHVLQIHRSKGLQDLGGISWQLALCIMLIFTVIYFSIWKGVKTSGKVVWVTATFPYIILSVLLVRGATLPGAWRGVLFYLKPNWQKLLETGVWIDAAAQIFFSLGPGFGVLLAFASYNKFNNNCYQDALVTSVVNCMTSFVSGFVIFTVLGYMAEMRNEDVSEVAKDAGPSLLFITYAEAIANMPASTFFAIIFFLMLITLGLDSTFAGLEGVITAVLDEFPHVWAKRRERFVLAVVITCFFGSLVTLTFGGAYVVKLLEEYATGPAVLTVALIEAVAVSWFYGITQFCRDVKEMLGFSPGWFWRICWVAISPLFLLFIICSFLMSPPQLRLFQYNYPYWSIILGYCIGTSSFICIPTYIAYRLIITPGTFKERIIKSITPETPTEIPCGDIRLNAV

IC50 [1, 3] [nM] | IC50 [2, 4] [nM] | SMILES | SERT pIC50 [1, 5] | NET pIC50 [2, 6] | further results
≤ 10 | ≤ 10 | CCOC[C@H](Oc1ccc(Cl)cc1Cl)[C@H]1CCNC1 [Example 6, (S)-3-[(R)-1-(2,4-Dichlorophenoxy)-2-ethoxyethyl]pyrrolidine] |  |  | 
≤ 10 | ≤ 10 | CCOC[C@H](Oc1ccc(Cl)c(F)c1)[C@H]1CCNC1 [Example 7-26, (S)-3-[(R)-1-(4-Chloro-3-fluorophenoxy)-2-ethoxyethyl]pyrrolidine] |  |  | 
 |  | CSC[C@H](Oc1cccc(Cl)c1Cl)[C@H]1CCNC1.O=C(O)C(F)(F)F [Example 15-1] | ≧8.0* | ≧8.0* | 
 |  | CCSC[C@@H](Oc1cccc(F)c1Cl)[C@H]1CCNC1.O=C(O)C(F)(F)F [Example 17-4] | ≧8.0* | ≧8.0* | 
≤ 10 | ≤ 10 | CCOC[C@H](Oc1cccc(Cl)c1C(F)(F)F)[C@H]1CCNC1 [Example 7-15, (S)-3-[(R)-1-(3-Chloro-2-trifluoromethylphenoxy)-2-ethoxyethyl]pyrrolidine] |  |  | 
 |  | CSC[C@H](Oc1cccc(Cl)c1C(F)(F)F)[C@H]1CCNC1.O=C(O)C(F)(F)F [Example 15-7] | ≧8.0* | ≧8.0* | 
 |  | CSC[C@@H](Oc1cccc(Cl)c1C(F)(F)F)[C@H]1CCNC1.O=C(O)C(F)(F)F [Example 15-8] | ≧8.0* | ≧7.0* | 
 |  | CCSC[C@@H](Oc1cccc(Cl)c1C)[C@H]1CCNC1.O=C(O)C(F)(F)F [Example 17-6] | ≧8.0* | ≧8.0* | 
≤ 10 | ≤ 10 | CC(C)SC[C@@H](Oc1cccc(F)c1Cl)[C@H]1CCNC1 [Example 19-4, (S)-3-[(S)-1-(2-Chloro-3-fluorophenoxy)-2-isopropylsulfanylethyl]pyrrolidine] |  |  | 
≤ 10 | ≤ 10 | CCOC[C@@H](Oc1cccc(Cl)c1C)[C@H]1CCNC1 [Example 7-14, (S)-3-[(S)-1-(3-Chloro-2-methylphenoxy)-2-ethoxyethyl]pyrrolidine] |  |  | 
 |  | CSC[C@H](Oc1cccc(Cl)c1C)[C@H]1CCNC1.O=C(O)C(F)(F)F [Example 15-5] | ≧8.0* | ≧8.0* | 
≤ 10 | ≤ 100 | CC(C)SC[C@@H](Oc1ccc(Cl)cc1Cl)[C@H]1CCNC1 [Example 19-5, (S)-3-[(S)-1-(2,4-Dichlorophenoxy)-2-isopropylsulfanylethyl]pyrrolidine] |  |  | 
≤ 10 | ≤ 100 | CCOC[C@@H](Oc1ccc(Cl)cc1Cl)[C@H]1CCNC1 [Example 7-17, (S)-3-[(S)-1-(2,4-Dichlorophenoxy)-2-ethoxyethyl]pyrrolidine] |  |  | 
 |  | CCSC[C@H](Oc1ccc(C(F)(F)F)cc1)[C@H]1CCNC1.O=C(O)C(F)(F)F [Example 17-11] | ≧8.0* | ≧8.0* | 
 |  | CCOC[C@@H](Oc1ccc(C#N)c(Cl)c1)[C@@H]1CCNC1 (stereo in doubt) [Example 7-25, 2-Chloro-4-((R)-2-ethoxy-1-(S)-pyrrolidin-3-ylethoxy)benzonitrile] |  |  | IC50 [1]: ≤ 10 nM; IC50 [2]: ≤ 100 nM
≤ 10 | ≤ 10 | CCOC[C@H](Oc1cccc(Cl)c1Cl)[C@H]1CCNC1 [Example 7-7, (S)-3-[(R)-1-(2,3-Dichlorophenoxy)-2-ethoxyethyl]pyrrolidine] |  |  | 
 |  | CCSC[C@@H](Oc1cccc(C(F)(F)F)c1)[C@H]1CCNC1.O=C(O)C(F)(F)F [Example 17-12] | ≧8.0* | ≧7.0* | 
≤ 10 | ≤ 10 | Cc1c(Cl)cccc1O[C@@H](COC(C)C)[C@H]1CCNC1 [Example 9-16, (S)-3-[(R)-1-(3-Chloro-2-methylphenoxy)-2-isopropoxyethyl]pyrrolidine] |  |  | 

IC50 [1, 3] [nM] | IC50 [2, 4] [nM] | SMILES | SERT pIC50 [1, 5] | NET pIC50 [2, 6] | further results
≤ 10 | ≤ 100 | CC(C)OC[C@@H](Oc1cccc(C(F)(F)F)c1)[C@H]1CCNC1 [Example 9-3, (S)-3-[(S)-2-Isopropoxy-1-(3-trifluoromethylphenoxy)ethyl]pyrrolidine] |  |  | 
 |  | CCSC[C@@H](Oc1ccc(Cl)cc1Cl)[C@H]1CCNC1.O=C(O)C(F)(F)F [Example 17-8] | ≧8.0* | ≧8.0* | 
≤ 10 | ≤ 100 | CCOC[C@@H](Oc1cccc(Cl)c1C(F)(F)F)[C@H]1CCNC1 [Example 7-16, (S)-3-[(S)-1-(3-Chloro-2-trifluoromethylphenoxy)-2-ethoxyethyl]pyrrolidine] |  |  | 
≤ 100 | ≤ 10 | CC(C)OC[C@H](Oc1c(Cl)cccc1Cl)[C@H]1CCNC1 [Example 9-29, (S)-3-[(R)-1-(2,6-Dichlorophenoxy)-2-isopropoxyethyl]pyrrolidine] |  |  | 
 |  | CCSC[C@H](Oc1cccc(F)c1Cl)[C@H]1CCNC1.O=C(O)C(F)(F)F [Example 17-3] | ≧8.0* | ≧8.0* | 
≤ 10 | ≤ 10 | CCSC[C@H](Oc1cccc(Cl)c1C(F)(F)F)[C@H]1CCNC1 [Example 16, (S)-3-[(R)-1-(3-Chloro-2-trifluoromethylphenoxy)-2-ethylsulfanylethyl]-pyrrolidine] |  |  | 
≤ 10 | ≤ 10 | CC(C)OC[C@@H](Oc1cccc(Cl)c1C(F)(F)F)[C@H]1CCNC1 [Example 9-19, (S)-3-[(S)-1-(3-Chloro-2-trifluoromethylphenoxy)-2-isopropoxyethyl]pyrrolidine] |  |  | 
≤ 100 | ≤ 10 | CCOC[C@H](Oc1c(Cl)cc(F)cc1Cl)[C@H]1CCNC1 [Example 7-31, (S)-3-[(R)-1-(2,6-Dichloro-4-fluorophenoxy)-2-ethoxyethyl]pyrrolidine] |  |  | 
≤ 100 | ≤ 10 | CCOC[C@H](Oc1cc(Cl)cc(Cl)c1)[C@H]1CCNC1 [Example 7-27, (S)-3-[(R)-1-(3,5-Dichlorophenoxy)-2-ethoxyethyl]pyrrolidine] |  |  | 
 |  | CSC[C@@H](Oc1cccc(Cl)c1C)[C@H]1CCNC1.O=C(O)C(F)(F)F [Example 15-6] | ≧8.0* | ≧8.0* | 
 |  | CSC[C@H](Oc1cccc(F)c1Cl)[C@H]1CCNC1.O=C(O)C(F)(F)F [Example 15-3] | ≧8.0* | ≧8.0* | 
≤ 10 | ≤ 10 | CC(C)OC[C@H](Oc1ccc(Cl)cc1Cl)[C@H]1CCNC1 [Example 8, (S)-3-[(R)-1-(2,4-Dichlorophenoxy)-2-isopropoxyethyl]pyrrolidine] |  |  | 
 |  | CSC[C@@H](Oc1c(C)cc(Cl)cc1Cl)[C@H]1CCNC1.O=C(O)C(F)(F)F [Example 15-13] | ≧8.0* | ≧7.0* | 
 |  | Clc1ccccc1O[C@@H](COCc1ccccc1)[C@H]1CCNC1 [Example 10-1] | ≧7.0* | ≧8.0* | 
≤ 10 | ≤ 10 | CC(C)OC[C@@H](Oc1cccc(F)c1Cl)[C@H]1CCNC1 [Example 9-11, (S)-3-[(S)-1-(2-Chloro-3-fluorophenoxy)-2-isopropoxyethyl]pyrrolidine] |  |  | 
≤ 10 | ≤ 10 | CCOC[C@H](Oc1ccc(Cl)cc1)[C@H]1CCNC1 [Example 7-4, (S)-3-[(R)-1-(4-Chlorophenoxy)-2-ethoxyethyl]pyrrolidine] |  |  | 
≤ 10 | ≤ 10 | CCOC[C@H](Oc1ccc(C(F)(F)F)cc1Cl)[C@H]1CCNC1 [Example 7-19, (S)-3-[(R)-1-(2-Chloro-4-trifluoromethylphenoxy)-2-ethoxyethyl]pyrrolidine] |  |  | 
